Experiment [1] deals with T1, MgCA (Malassezia globosa, UniProt A8Q1N3).
T1 construct: gene MGL_1814
T1 sequence (A8Q1N3 1-241): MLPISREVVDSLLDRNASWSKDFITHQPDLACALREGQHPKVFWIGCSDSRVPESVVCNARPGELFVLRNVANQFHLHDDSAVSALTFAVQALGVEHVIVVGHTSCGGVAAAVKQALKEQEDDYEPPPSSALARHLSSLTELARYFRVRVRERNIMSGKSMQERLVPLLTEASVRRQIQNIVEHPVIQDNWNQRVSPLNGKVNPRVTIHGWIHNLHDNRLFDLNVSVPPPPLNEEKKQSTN
Description: biochemical.

In experiment [2] the target is T2, hCA VII (Homo sapiens, UniProt P43166).
T2 construct: gene CA7; recombinant
In kind it is biochemical.

The target of experiment [3] is T3, VchCAβ (Vibrio cholerae, UniProt A0A086SLX8).
T3 construct: gene can
Format: biochemical. The conditions noted are these: read-out: VchCAβ; CO2 […], […] TRIS pH […] Na2SO4, […] °C, […] min preincubation.

For experiment [4], the target named is T4, hCA I (Homo sapiens, UniProt P00915).
T4 construct: gene CA1; recombinant
Format: biochemical.

Experiment [5] has as its target T5, VchCAγ.
T5 construct: gene VchCAgamma
In kind it is biochemical, Vibrio cholerae. The following applies: CO2 […], […] TRIS pH […] Na2SO4, […] °C, […] min preincubation.

Experiment [6] deals with T6, hCA II (Homo sapiens, UniProt P00918).
T6 construct: gene CA2; recombinant
In kind it is biochemical.

T4 sequence (P00915 2-261): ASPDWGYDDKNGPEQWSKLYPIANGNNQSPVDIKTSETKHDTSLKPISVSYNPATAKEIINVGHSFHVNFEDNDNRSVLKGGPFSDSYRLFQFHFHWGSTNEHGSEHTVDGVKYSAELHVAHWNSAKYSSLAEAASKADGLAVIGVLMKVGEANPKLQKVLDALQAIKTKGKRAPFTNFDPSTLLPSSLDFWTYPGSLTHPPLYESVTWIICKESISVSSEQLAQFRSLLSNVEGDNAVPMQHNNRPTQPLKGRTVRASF
T3 sequence (A0A086SLX8 1-222): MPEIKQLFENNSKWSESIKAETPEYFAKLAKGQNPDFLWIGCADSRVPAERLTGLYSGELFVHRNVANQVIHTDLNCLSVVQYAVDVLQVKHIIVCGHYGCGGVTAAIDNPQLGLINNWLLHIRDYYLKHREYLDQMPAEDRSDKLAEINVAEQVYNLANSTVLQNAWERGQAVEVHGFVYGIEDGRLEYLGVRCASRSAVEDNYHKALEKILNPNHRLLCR
T2 sequence (P43166 whole entry): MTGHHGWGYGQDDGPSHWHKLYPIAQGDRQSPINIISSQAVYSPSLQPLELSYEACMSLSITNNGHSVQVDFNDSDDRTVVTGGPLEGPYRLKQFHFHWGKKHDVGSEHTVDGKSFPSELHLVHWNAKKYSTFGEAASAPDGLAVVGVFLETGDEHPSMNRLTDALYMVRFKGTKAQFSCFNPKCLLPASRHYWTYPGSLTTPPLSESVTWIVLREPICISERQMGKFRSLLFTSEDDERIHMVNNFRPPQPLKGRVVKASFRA

For `COC(=O)CC[C@@H](NC(=O)c1ccc(S(N)(=O)=O)cc1)C(=O)OC` [3g, Dimethyl (4-Sulfamoylbenzoyl)-D-Glutamate], the Ki is 0.632 µM in experiment [1]; 0.0006 µM in experiment [2]; 0.862 µM in experiment [3]; 0.0082 µM in experiment [4]; 0.503 µM in experiment [5]; 0.0052 µM in experiment [6].

For `CCCNC(=O)c1ccc(S(N)(=O)=O)cc1` [3b, N-Propyl-4-Sulfamoylbenzamide], the Ki was 3.92 µM in experiment [1]; 0.0004 µM in experiment [2]; 7.68 µM in experiment [3]; 0.0082 µM in experiment [4]; 0.636 µM in experiment [5]; 0.0035 µM in experiment [6].

Consider `CCNC(=O)c1ccc(S(N)(=O)=O)cc1` [3a, N-Ethyl-4-Sulfamoylbenzamide], for which the Ki in experiment [1] is 7.67 µM; in experiment [2], 0.0267 µM; in experiment [3], 7.08 µM; in experiment [4], 0.334 µM; in experiment [5], 0.929 µM; in experiment [6], 0.0053 µM.

With `NS(=O)(=O)c1ccc(C(=O)N2CCCCC2)cc1` [3e, 4-(Piperidine-1-Carbonyl)Benzenesulfonamide], the figures for the Ki in experiment [1], in experiment [3] and in experiment [5] were 3.98 µM, 0.749 µM and 0.453 µM, respectively.

In the case of `NS(=O)(=O)c1ccc(C(=O)N2CCOCC2)cc1` [3d, 4-(Morpholine-4-Carbonyl)Benzenesulfonamide], the Ki in experiment [1] was 5.88 µM; in experiment [2] it was 0.0008 µM; in experiment [3], 8.59 µM; in experiment [4] it was 0.0087 µM; in experiment [5], 0.693 µM; in experiment [6] it was 0.0062 µM.

`COC(=O)C(NC(=O)c1ccc(S(N)(=O)=O)cc1)C(C)C` (racemic) [3f, Methyl (4-Sulfamoylbenzoyl)-DL-Valinate]: the Ki is 5.5 µM in experiment [1]; 0.0037 µM in experiment [2]; 8.17 µM in experiment [3]; 0.0578 µM in experiment [4]; 4.46 µM in experiment [5]; 0.0045 µM in experiment [6].

In the case of `COC(=O)[C@H](CC(C)C)NC(=O)c1ccc(S(N)(=O)=O)cc1` [3h, Methyl (4-Sulfamoylbenzoyl)-L-Leucinate], the Ki in experiment [1] turned out to be 0.763 µM; in experiment [2], 0.0004 µM; in experiment [3], 0.719 µM; in experiment [4], 0.0056 µM; in experiment [5], 0.891 µM; in experiment [6] it was 0.0037 µM.

As for `COC(=O)[C@H](Cc1ccccc1)NC(=O)c1ccc(S(N)(=O)=O)cc1` [3l, Methyl (4-Sulfamoylbenzoyl)-L-Phenylalaninate], the Ki in experiment [1] came out at 0.517 µM; in experiment [2], 0.0005 µM; in experiment [3] it was 0.663 µM; in experiment [4], 0.0056 µM; in experiment [5] it was 0.409 µM; in experiment [6] it was 0.0033 µM.

In the case of `C#CCNC(=O)c1ccc(S(N)(=O)=O)cc1` [3c, N-(Prop-2-Yn-1-Yl)-4-Sulfamoylbenzamide], the Ki amounted to 5.78 µM in experiment [1], 0.0006 µM in experiment [2], 0.741 µM in experiment [3] and 0.383 µM in experiment [5].

In the case of `COC(=O)C[C@@H](NC(=O)c1ccc(S(N)(=O)=O)cc1)C(=O)OC` [3i, Dimethyl (4-Sulfamoylbenzoyl)-D-Aspartate], the Ki came out at 6.95 µM in experiment [1]; 0.0007 µM in experiment [2]; 0.91 µM in experiment [3]; 0.0757 µM in experiment [4]; 0.744 µM in experiment [5]; 0.0061 µM in experiment [6].

On to `CCOC(=O)CCCNC(=O)c1ccc(S(N)(=O)=O)cc1` [3k, Ethyl 4-(4-Sulfamoylbenzamido)Butanoate], for which the Ki in experiment [1] worked out at 6.69 µM; in experiment [2], 0.0004 µM; in experiment [3], 0.953 µM; in experiment [4], 0.0053 µM; in experiment [5] it was 0.756 µM; in experiment [6], 0.004 µM.

Consider `COC(=O)C(C)NC(=O)c1ccc(S(N)(=O)=O)cc1` (racemic) [3j, Methyl (4-Sulfamoylbenzoyl)-DL-Alaninate], for which the Ki in experiment [1] turned out to be 0.0873 µM; in experiment [2], 0.0037 µM; in experiment [3], 0.412 µM; in experiment [4] it was 0.0853 µM; in experiment [5], 0.271 µM; in experiment [6], 0.0061 µM.

These data come from article PMC6027465, “Benzamide-4-Sulfonamides Are Effective Human Carbonic Anhydrase I, II, VII, and IX Inhibitors” (Metabolites, 2018).
